Reference: patent US20080051454A1, “Compositions and methods for transient receptor potential vanilloid (TRPV) channel mediated treatments” (The Board of Trustees Operating Michigan State University, priority 2006, published 2008)
Where “and” joins values, the source holds several entries; their conditions need not be identical. Equal entries are not always repeated.

Legend:
mesenteric arteries [1] = assay: MethA-induced CGRP release from isolated mesenteric arteries (radioimmunoassay); parameters: species or system rat; settings: arteries of NS-treated rats
Description: The arteries were dissected free of fat and connective tissues.
The preparations were incubated in a Krebs' solution of the following compositions (in mM): NaCl 119, NaHCO3 25, KH2PO4 1.2, MgSO4 1.5, CaCl2 2.5, KCl 4.7, and D-glucose 11. The Krebs' solution was maintained at 37 °C and gassed with 95% O2 and 5% CO2. After 1 h stabilization period, the arteries were transferred to another chamber containing 1 ml of Krebs' solution with the addition of 0.05% BSA and drugs. […] The tissues were removed after 20 min incubation, and the solutions were collected. At the end of the experiment, the tissues were blotted and weighted.
(§1) This antibody has 100% cross-reactivity with rat α-CGRP and 79% with rat β-CGRP. There is no cross-reactivity with rat amylin, calcitonin, somatostatin, or substance P.

[2] = tested on: Wistar rats fed a NS or HS diet for 3 weeks; assay: Plasma CGRP levels after MethA injection (radioimmunoassay); type: in vivo, rat; settings: MethA 5 mg/kg
Source text: Fifteen minutes after injection, when the prolonged depressor phase approached to the lowest point, the rats were decapitated for collection of blood for plasma CGRP assay.
as §1

[3] = tested on: Wistar rats fed a normal-salt (NS) or high-salt (HS) diet for 10 days; assay: MAP and HR responses to i.v. bolus NADA with or without antagonists in conscious rats; type: in vivo, rat; settings: for decrease in mean arterial pressure (depressor effect): NADA iv (1, 4, 10 mg/kg; dose of this value not stated); for prolonged depressor effect of NADA (decrease in MAP) after antagonist: NADA 4 mg/kg after CAPZ 3 mg/kg, CGRP8-37 infusion or SR141716A 3 mg/kg
Source text: In brief: Wistar rats were fed a normal (NS, 0.4%) or high (HS, 4%) sodium diet for 10 days, then artery and vein were cannulated for measurement of mean arterial pressure (MAP) or for injection of drugs and collection of plasma.
Animal Preparation: Male Wistar rats (7 weeks old, Charles River Laboratory, Wilmington, Mass.) were housed in the animal facility for 1 week before the experiment. Rats were grouped randomly and pair-fed a NS (0.4% of Na^+ by weight) or HS (4% of Na^+ by weight) diet for 10 days. The rat chow was purchased from Harlan Teklad Diets (Madison, Wis.). Drinking water was available ad libitum throughout the experiment. All protocols were in accordance with the National Institutes of Health Guidelines for the Care and Use of Laboratory Animals.
Surgical Preparation Rats were anesthetized with ketamine and xylazine (80 and 4 mg/kg intraperitoneally, respectively) for cannulation or with urethane (1.5 g/kg intraperitoneally) for capsaicin administration. The left jugular vein, carotid and femoral artery were cannulated under anesthesia for injection of drugs or monitoring of mean arterial pressure (MAP) and heart rate (HR).
Three hours after surgery, baseline MAP and its response to the above-mentioned drugs were obtained with the rats fully awake and unrestrained [Wang et al., Am J Physiol 2004; 287:H1868-H[874]. NADA was injected in increasing doses (1, 4, and 10 mg/kg intravenous bolus) in 3 subgroups of rats (each group for each dose). To determine the role of TRPV1 and CB 1 receptor in NADA-induced hypotension, NADA (4 mg/kg) was injected 10 minutes or 20 minutes after intravenous injection of CAPZ (3 mg/kg) or SR141716A (3 mg/kg), respectively.
To examine the effect of CGRP8-37 on NADA-induced hypotension, CGRP8-37 was intravenously administered at the rate of 1 mg/kg/min for 2 minutes followed by injection at the rate of 0.5 mg/kg/min for 15 minutes. NADA (4 mg/kg) was injected 1 minute after CGRPs-37 administration. The effectiveness of the dose and time frame for CGRP8-37 injection was verified by blockade of the hypotensive response to capsaicin (30 μg/kg) (n=5).

mesenteric arteries [4] = assay: NADA-induced CGRP release from isolated mesenteric arteries (radioimmunoassay); parameters: species or system rat
Description: After an 1 h stabilization period, the arteries were transferred to another chamber containing 1 ml of Krebs's solution with the addition of 0.05% BSA and drugs including NADA (1 or 10 μM) or CAPZ (10 μM). The tissues were removed after 20 min incubation, and the solutions were collected and evaporated. […] At the end of the experiment, the tissues were blotted and weighted. […] The results are expressed as pg of milligram of tissues.
(§2) This antibody has 100% cross-reactivity with rat a-CGRP and 79% with β-CGRP. There is no cross-reactivity with rat amylin, calcitonin, somatostatin, or substance P. The assay was performed following the manufacturer's protocol.

[5] = tested on: Wistar rats fed a NS or HS diet for 10 days; assay: Plasma CGRP levels after NADA injection (radioimmunoassay); type: in vivo, rat; settings: NADA 4 mg/kg
Description: Eight minutes after injection, when the depressor phase approached to the lowest point, the rats were sacrificed for collection of blood for plasma CGRP assay.
as §2

Wistar rats fed HS diet = assay: Blood pressure after i.v. SR141716A or CAPZ in conscious rats fed HS diet (Example I); type: in vivo, rat; settings: 3 mg/kg iv
Description: Experiments were approved by the Institutional Animals Care and Use Committee. Experiments were performed using male Wistar rats (Charles River Laboratory, Wilmington, Mass.). Rats (6 weeks old) were housed in the animal facility for 1 week before the experiments. Rats were then randomly assigned to a normal-sodium (NS) diet (0.4% of Na+ by weight, Harlan Teklad) or HS (4% of Na+ by weight; Harlan Teklad) for 3 weeks. Rats drank water ad libitum throughout the experiment.
Surgical Preparation and MAP measurements: The rats were anesthetized with ketamine and xylazine (80 and 4 mg/kg intraperitoneally, respectively) for implantation of vascular catheters or with urethane ([…] intraperitoneally) throughout protocol 2. […]
Protocol 1: Rats fed a NS or HS diet were randomly assigned to 5 groups for intravenous injection of vehicle or MethA alone or in combination with SR141716A (a CB1 receptor antagonist), CAPZ (a VR1 receptor antagonist), or the combination of the 2 (n=5 to 8). Baseline MAP and its response to the aforementioned drugs were determined 3 hours after surgery when animals were fully awake and unrestrained as described previously. […]

male Wistar rats [6] = assay: Depressor effect of 20-HETE analog DSR given IV, with or without antagonists; type: in vivo, rat
male Wistar rats [7] = assay: Plasma CGRP and substance P after i.v. DSR (radioimmunoassay); type: in vivo, rat; settings: after DSR 1 mg/kg iv

## CCCCC/C=C\C/C=C\C/C=C\C/C=C\CCCC(=O)N[C@H](C)CO [MethA, methanandamide]
Mesenteric arteries [1]; MethA 0.1 μM
  CGRP release: 4.81±0.75 pg/mg tissue
Mesenteric arteries [1]; MethA 10 μM
  CGRP release: 14.89±2.36 pg/mg tissue
[2]; HS
  plasma CGRP levels: 78.1 ± 8.5 pg/mL
[2]; NS
  plasma CGRP levels: 50.4 ± 5.9 pg/mL

## CCCCC/C=C\C/C=C\C/C=C\C/C=C\CCCC(=O)NCCc1ccc(O)c(O)c1 [NADA, N-arachidonoyl dopamine]
[3]; NADA 1 mg/kg iv, HS diet
  peak decrease in MAP: 6±2 mmHg
[3]; NADA 1 mg/kg iv, NS diet
  peak decrease in MAP: 7±3 mmHg
[3]; NADA 4 mg/kg iv, HS diet
  peak decrease in MAP: 22±3 mmHg
[3]; NADA 4 mg/kg iv, NS diet
  peak decrease in MAP: 14±2 mmHg
[3]; NADA 10 mg/kg iv, HS diet
  peak decrease in MAP: 33±5 mmHg
[3]; NADA 10 mg/kg iv, NS diet
  peak decrease in MAP: 24±4 mmHg
[3]; HS diet
  decrease in mean arterial pressure (depressor effect): 16±3 mmHg
[3]; NS diet
  decrease in mean arterial pressure (depressor effect): 8±2 mmHg
[3]; after NADA iv
  HR during depressor effect: pronounced increase
  duration of prolonged depressor activity: approximately 20 minutes
  time of peak of prolonged depressor activity after administration: 7 to 9 min
Mesenteric arteries [4]; NADA 1 μM, arteries of HS-treated rats
  CGRP release: 9.16±0.68 pg/mg tissue
Mesenteric arteries [4]; NADA 1 μM, arteries of NS-treated rats
  CGRP release: 6.43±0.58 pg/mg tissue
Mesenteric arteries [4]; NADA 10 μM, arteries of HS-treated rats
  CGRP release: 19.00±1.56 pg/mg tissue
Mesenteric arteries [4]; NADA 10 μM, arteries of NS-treated rats
  CGRP release: 13.07±0.91 pg/mg tissue
[5]; HS
  plasma CGRP levels: 84.2 ± 7.2 pg/mL and 87.7 ± 5.6 pg/mL
[5]; NS
  plasma CGRP levels: 55.3 ± 4.6 pg/mL and 60.6 ± 5.1 pg/mL

## Cc1c(C(=O)NN2CCCCC2)nn(-c2ccc(Cl)cc2Cl)c1-c1ccc(Cl)cc1 [SR141716A]
[3]; HS diet
  prolonged depressor effect of NADA (decrease in MAP) after antagonist: 19±4 mmHg
[3]; NS diet
  prolonged depressor effect of NADA (decrease in MAP) after antagonist: 12±3 mmHg
[3]; NADA 4 mg/kg, NS and HS
  effect on initial transient hypotensive and brief pressor phases of NADA: did not affect
Wistar rats fed HS diet
  duration of transient elevation in blood pressure after injection: no more than 15 minutes

## O=C(O)CCC/C=C\CCCCCCC/C=C\CCCCO [DSR]
Male Wistar rats [6]; DSR 1 mg/kg IV alone
  decrease in mean arterial pressure: 22.1±2.3 mmHg
Male Wistar rats [6]; rat, in vivo
  depressor effect among the analogs tested in vivo: most potent
Male Wistar rats [7]
  plasma CGRP levels: 273.4 ± 23.6 pg/mL
  plasma SP levels: 14.5 ± 1.6 pg/mL
